Laboratory results as given in ChEMBL document CHEMBL4219226, “Terpenoids isolated from Chinese liverworts Lepidozia reptans and their anti-inflammatory activity” (Bioorg Med Chem, 2018).
The source made the active and inactive calls. The rule behind the calls is not given here.

Legend:
[1] = system: THP-1; assay: Antiinflammatory activity in human THP1 cells assessed as inhibition of LPS-induced […] mRNA level at 12 to 25 uM preincubated for 1 hr followed by LPS stimulation measured after 12 hrs by qPCR method; assay type: functional, cell-based
[2] = biological target: T1, Transcription factor E3 (Homo sapiens) (UniProt P19532); assay: Inhibition of LPS-induced TFE3 nuclear translocation in human THP1 cells at 12 to 25 uM preincubated for 1 hr followed by LPS stimulation measured after 12 hrs by Western blot method; assay type: cell-based
T1 sequence (whole entry): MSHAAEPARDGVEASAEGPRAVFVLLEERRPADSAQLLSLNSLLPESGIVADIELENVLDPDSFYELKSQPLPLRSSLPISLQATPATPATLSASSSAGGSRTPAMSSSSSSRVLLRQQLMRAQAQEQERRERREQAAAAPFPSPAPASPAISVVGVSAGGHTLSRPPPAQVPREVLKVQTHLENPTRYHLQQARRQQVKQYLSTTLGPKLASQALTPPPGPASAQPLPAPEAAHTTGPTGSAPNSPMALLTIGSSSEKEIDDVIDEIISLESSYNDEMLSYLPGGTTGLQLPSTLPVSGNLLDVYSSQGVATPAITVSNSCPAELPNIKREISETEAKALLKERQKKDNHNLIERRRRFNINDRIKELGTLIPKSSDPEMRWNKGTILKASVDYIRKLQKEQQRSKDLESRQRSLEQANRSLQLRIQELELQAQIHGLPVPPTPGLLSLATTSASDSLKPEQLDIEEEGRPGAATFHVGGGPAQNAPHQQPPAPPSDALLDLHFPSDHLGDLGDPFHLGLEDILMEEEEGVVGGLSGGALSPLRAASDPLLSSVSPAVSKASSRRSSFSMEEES

[3] = system: RAW264.7; assay: Antiinflammatory activity in mouse RAW264.7 cells assessed as inhibition of LPS-induced nitric oxide production after 24 hrs by Griess method; assay type: functional, cell-based; settings: RAW264.7, 24 h
[4] = system: RAW264.7; assay: Cytotoxicity against mouse RAW264.7 cells assessed as reduction in cell viability by MTT assay; assay type: cell-based
[5] = biological target: Transcription factor p65 (Homo sapiens) (UniProt Q04206); assay: Inhibition of LPS-induced NFkB p65 phosphorylation in cytoplasm of human THP1 cells preincubated for 1 hr followed by LPS stimulation measured after 12 hrs by Western blot method
[6] = system: THP-1; assay: Antiinflammatory activity in human THP1 cells assessed as inhibition of LPS-induced IL-6 mRNA level preincubated for 1 hr followed by LPS stimulation measured after 12 hrs by qPCR method; assay type: functional, cell-based
[7] = biological target: T1, Transcription factor E3 (Homo sapiens); assay: Inhibition of LPS-induced TFE3 nuclear translocation in human THP1 cells at 50 to 100 uM preincubated for 1 hr followed by LPS stimulation measured after 12 hrs by Western blot method; assay type: cell-based
[8] = system: THP-1; assay: Antiinflammatory activity in human THP1 cells assessed as inhibition of LPS-induced TNF-alpha mRNA level preincubated for 1 hr followed by LPS stimulation measured after 12 hrs by qPCR method; assay type: functional, cell-based
[9] = system: THP-1; assay: Inhibition of LPS-induced TFEB nuclear translocation in human THP1 cells at 50 to 100 uM preincubated for 1 hr followed by LPS stimulation measured after 12 hrs by Western blot method; assay type: functional, cell-based
[10] = biological target: Transcription factor p65 (Homo sapiens) (UniProt Q04206); assay: Inhibition of GFP-fused NFkB p65 (unknown origin) expressed in HEK293T cells assessed as reduction in LPS-induced p65 nuclear translocation at 100 uM preincubated for 1 hr followed by LPS stimulation measured after 12 hrs by DAPI staining based confocal microscopic method; assay type: cell-based
[11] = system: THP-1; assay: Inhibition of LPS-induced STAT3 nuclear translocation in human THP1 cells at 50 to 100 uM preincubated for 1 hr followed by LPS stimulation measured after 12 hrs by Western blot method; assay type: functional, cell-based
[12] = system: THP-1; assay: Antiinflammatory activity in human THP1 cells assessed as inhibition of LPS-induced IL-alpha mRNA level preincubated for 1 hr followed by LPS stimulation measured after 12 hrs by qPCR method; assay type: functional, cell-based
[13] = biological target: Transcription factor p65 (Homo sapiens) (UniProt Q04206); assay: Inhibition of LPS-induced NFkB p65 nuclear translocation in human THP1 cells preincubated for 1 hr followed by LPS stimulation measured after 12 hrs by Western blot method; assay type: cell-based
[14] = system: THP-1; assay: Antiinflammatory activity in human THP1 cells assessed as inhibition of LPS-induced COX-2 protein level at 50 to 100 uM preincubated for 1 hr followed by LPS stimulation measured after 12 hrs by Western blot method; assay type: functional, cell-based
[15] = system: THP-1; assay: Antiinflammatory activity in human THP1 cells assessed as inhibition of LPS-induced […] mRNA level at 50 to 100 uM preincubated for 1 hr followed by LPS stimulation measured after 12 hrs by qPCR method; assay type: functional, cell-based
[16] = system: THP-1; assay: Antiinflammatory activity in human THP1 cells assessed as inhibition of LPS-induced IL-beta mRNA level preincubated for 1 hr followed by LPS stimulation measured after 12 hrs by qPCR method; assay type: functional, cell-based
[17] = system: THP-1; assay: Inhibition of LPS-induced STAT1 nuclear translocation in human THP1 cells at 50 to 100 uM preincubated for 1 hr followed by LPS stimulation measured after 12 hrs by Western blot method; assay type: functional, cell-based
[18] = biological target: T1, Transcription factor E3 (Homo sapiens); assay: Inhibition of GFP-fused TFE3 (unknown origin) expressed in HEK293T cells assessed as reduction in LPS-induced TFE3 nuclear translocation at 100 uM preincubated for 1 hr followed by LPS stimulation measured after 12 hrs by DAPI staining based confocal microscopic method; assay type: cell-based

Transcription factor p65 (Homo sapiens), sequence (Q04206 whole entry, the tested form may be a part): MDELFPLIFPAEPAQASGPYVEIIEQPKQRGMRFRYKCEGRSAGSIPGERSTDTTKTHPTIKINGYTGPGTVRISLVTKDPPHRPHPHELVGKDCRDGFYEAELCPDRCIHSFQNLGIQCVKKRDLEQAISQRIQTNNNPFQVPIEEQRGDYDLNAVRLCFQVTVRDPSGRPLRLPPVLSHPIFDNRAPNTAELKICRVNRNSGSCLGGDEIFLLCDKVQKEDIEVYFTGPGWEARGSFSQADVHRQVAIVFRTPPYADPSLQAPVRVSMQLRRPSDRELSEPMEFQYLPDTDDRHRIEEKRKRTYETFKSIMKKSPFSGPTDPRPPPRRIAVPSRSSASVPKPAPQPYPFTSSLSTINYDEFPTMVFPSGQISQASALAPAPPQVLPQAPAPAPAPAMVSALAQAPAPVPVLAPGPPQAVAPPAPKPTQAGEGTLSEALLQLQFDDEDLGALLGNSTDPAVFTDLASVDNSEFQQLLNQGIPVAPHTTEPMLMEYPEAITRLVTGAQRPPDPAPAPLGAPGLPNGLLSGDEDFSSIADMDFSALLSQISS

**Q.** With `O=c1cc(-c2ccc(O)c(O)c2)oc2cc(O)cc(O)c12` [LUTEOLIN] as the compound, how does the inhibition [1] read?
**A.** Its inhibition is “Active”.

**Q.** And the inhibition [2]?
**A.** The inhibition was “Active”.

**Q.** And the IC50 [3]?
**A.** Its IC50 is 14.4 µM.

**Q.** What about the IC50 [4] of the same compound?
**A.** Its IC50 is > 50 µM.

**Q.** What does the source list for `CC1=C(C)C(=O)C(CC[C@@](C)(O)CCC[C@@H](C)CCC[C@@H](C)CCCC(C)C)=C(C)C1=O`?
**A.** IC50 [3]: > 100 µM; IC50 [4]: > 100 µM

**Q.** How did the inhibition [5] turn out when `C/C1=C/C(=O)C/C(C)=C/C[C@]2(C)CC[C@](O)(C(C)C)[C@H]2CC1` was run?
**A.** Its inhibition is “Dose-dependent effect”.

**Q.** What about the inhibition [6] of the same compound?
**A.** Its inhibition is “Dose-dependent effect”.

**Q.** What about the inhibition [7] of the same compound?
**A.** The inhibition was “Active”.

**Q.** And the inhibition [8]?
**A.** The inhibition was “Dose-dependent effect”.

**Q.** What about the inhibition [9] of the same compound?
**A.** Its inhibition is “inactive”.

**Q.** What about the inhibition [10] of the same compound?
**A.** Its inhibition is “Active”.

**Q.** What about the inhibition [11] of the same compound?
**A.** The inhibition was “inactive”.

**Q.** And the inhibition [12]?
**A.** The inhibition was “Dose-dependent effect”.

**Q.** What about the IC50 [3] of the same compound?
**A.** Its IC50 is 34.9 µM.

**Q.** What about the inhibition [13] of the same compound?
**A.** Its inhibition is “Dose-dependent effect”.

**Q.** What about the inhibition [14] of the same compound?
**A.** Its inhibition is “Active”.

**Q.** And the inhibition [15]?
**A.** The inhibition was “Active”.

**Q.** What about the IC50 [4] of the same compound?
**A.** The IC50 was > 100 µM.

**Q.** What about the inhibition [16] of the same compound?
**A.** The inhibition was “Dose-dependent effect”.

**Q.** What about the inhibition [17] of the same compound?
**A.** The inhibition was “inactive”.

**Q.** And the inhibition [18]?
**A.** The inhibition was “Active”.
